Measured values from ChEMBL document CHEMBL1201862, “PubChem BioAssay data set” (2004).
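The compound was tested at five concentrations on cells cultured in 96-well plates, with a 48-hour exposure period. Abbreviation: GI50, concentration required for 50% inhibition of growth.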 Calls of active or inactive are those of the source. No stated cut-off is given here; in the data, active = GI50 up to about 1.1 µM and inactive = higher.

How the values were obtained:
Test in all cases: NCI anticancer screen, dose series, 48 h
[1] = test system: HT-29
[2] = test system: ACHN
[3] = test system: UACC-62
[4] = test system: SW-620
[5] = test system: BT-549
[6] = test system: CAKI-1
[7] = test system: OVCAR-8
[8] = test system: K562
[9] = test system: RXF 393
[10] = test system: SK-OV-3
[11] = test system: SK-MEL-5
[12] = test system: LOX IMVI
[13] = test system: SR
[14] = test system: SF-295
[15] = test system: CCRF-CEM
[16] = test system: MCF7
[17] = test system: SNB-75
[18] = test system: IGROV-1
[19] = test system: T47D

| Compound | GI50 [1] | GI50 [2] | GI50 [3] | GI50 [4] | GI50 [5] | GI50 [6] | GI50 [7] | GI50 [8] | GI50 [9] | GI50 [10] | GI50 [11] | GI50 [12] | GI50 [13] | GI50 [14] | GI50 [15] | GI50 [16] | GI50 [17] | GI50 [18] | GI50 [19] |
| --- | --- | --- | --- | --- | --- | --- | --- | --- | --- | --- | --- | --- | --- | --- | --- | --- | --- | --- | --- |
| C/C=C\C(CC(=O)O)CC(=O)NCCC1CN(S(=O)(=O)C(F)(F)F)c2ccccc21 (stereo unspecified) | > 100 µM (inactive) | > 100 µM (inactive) | > 100 µM (inactive) | > 100 µM (inactive) | > 100 µM (inactive) | > 100 µM (inactive) | > 100 µM (inactive) | > 100 µM (inactive) | > 100 µM (inactive) | > 100 µM (inactive) | > 100 µM (inactive) | > 100 µM (inactive) | > 100 µM (inactive) | > 100 µM (inactive) | > 100 µM (inactive) | > 100 µM (inactive) | > 100 µM (inactive) | > 100 µM (inactive) |  |
| CC1(C)C(O)C[C@]23CCC[C@](C)(C[C@@H](O)C12)C3 (stereo partly specified) | > 100 µM (inactive) | > 100 µM (inactive) | > 100 µM (inactive) | > 100 µM (inactive) | > 100 µM (inactive) | > 100 µM (inactive) | > 100 µM (inactive) | > 100 µM (inactive) |  | > 100 µM (inactive) | > 100 µM (inactive) | > 100 µM (inactive) | > 100 µM (inactive) | > 100 µM (inactive) | > 100 µM (inactive) | > 100 µM (inactive) | > 100 µM (inactive) | > 100 µM (inactive) |  |
| O=C(O)C(Cc1c[nH]c2ccccc12)N1C(=O)c2ccccc2C1=O (stereo unspecified) | > 100 µM (inactive) | > 100 µM (inactive) | > 100 µM (inactive) | > 100 µM (inactive) | > 100 µM (inactive) | > 100 µM (inactive) | 7.21 µM (inactive) |  | > 100 µM (inactive) | > 100 µM (inactive) | > 100 µM (inactive) | > 100 µM (inactive) |  | > 100 µM (inactive) |  | > 100 µM (inactive) | > 100 µM (inactive) | 16.3 µM (inactive) | > 100 µM (inactive) |
| CC(C)C1=CC(=O)C(C)(C2C(O)CC3(C)C4CC=C5C(CCC(OC6OC(CO)C(O)C(O)C6OC6OC(C)C(O)C(O)C6O)C5(C)C)C4(C)C(=O)CC23C)O1 (stereo unspecified) | > 100 µM (inactive) | > 100 µM (inactive) | > 100 µM (inactive) | > 100 µM (inactive) | > 100 µM (inactive) | > 100 µM (inactive) | > 100 µM (inactive) | > 100 µM (inactive) | > 100 µM (inactive) | > 100 µM (inactive) | > 100 µM (inactive) |  |  | > 100 µM (inactive) | > 100 µM (inactive) | > 100 µM (inactive) | > 100 µM (inactive) | > 100 µM (inactive) | > 100 µM (inactive) |
| COc1cc2c(cc1OC)-c1cc3cc(OC)c(OC)cc3c(C)[n+]1CC2.O=C([O-])CS(=O)(=O)O | > 100 µM (inactive) | > 100 µM (inactive) | 23.2 µM (inactive) | > 100 µM (inactive) | 41.7 µM (inactive) | > 100 µM (inactive) | > 100 µM (inactive) |  | > 100 µM (inactive) | 79.1 µM (inactive) | 37.8 µM (inactive) | > 100 µM (inactive) |  | > 100 µM (inactive) | 6.49 µM (inactive) | 46.3 µM (inactive) |  | 61.1 µM (inactive) | 2.82 µM (inactive) |
| O=C(c1ccccc1)c1c(C(F)(F)F)[n+]([O-])c2cc(F)c(F)cc2[n+]1[O-] | 0.586 µM (active) | 0.0929 µM (active) | 2.22 µM (inactive) | 0.499 µM (active) |  | 0.807 µM (active) | 0.634 µM (active) | 0.105 µM (active) | 1 µM (active) | 5.97 µM (inactive) | 0.877 µM (active) |  | < 0.01 µM (active) | 0.946 µM (active) |  | 0.349 µM (active) | 1.95 µM (inactive) | 1.6 µM (inactive) | 1.79 µM (inactive) |
| CC(=O)C1C(=O)C(=O)N(c2ccc([N+](=O)[O-])cc2Cl)C1=O (stereo unspecified) | > 100 µM (inactive) | > 100 µM (inactive) | > 100 µM (inactive) | > 100 µM (inactive) | > 100 µM (inactive) | > 100 µM (inactive) | > 100 µM (inactive) |  | 97.9 µM (inactive) | > 100 µM (inactive) | > 100 µM (inactive) | > 100 µM (inactive) |  | > 100 µM (inactive) | > 100 µM (inactive) | > 100 µM (inactive) | > 100 µM (inactive) | > 100 µM (inactive) |  |
| O=C1Nc2ccccc2/C1=N/Nc1nc(-c2ccc(Cl)c(Cl)c2)cs1 | 56 µM (inactive) | 87.1 µM (inactive) |  | > 100 µM (inactive) |  | 5.69 µM (inactive) | 47.4 µM (inactive) |  |  | > 100 µM (inactive) | 20 µM (inactive) | > 100 µM (inactive) |  | > 100 µM (inactive) |  | 37.2 µM (inactive) | 49.3 µM (inactive) | 9.73 µM (inactive) | 26 µM (inactive) |
| CCOC(CN=C=S)OCC | > 10 µM (inactive) | > 10 µM (inactive) | > 10 µM (inactive) | > 10 µM (inactive) |  | > 10 µM (inactive) | > 10 µM (inactive) | 7.01 µM (inactive) | > 10 µM (inactive) | > 10 µM (inactive) | > 10 µM (inactive) | > 10 µM (inactive) | 2.52 µM (inactive) | > 10 µM (inactive) | 4.45 µM (inactive) | 9.27 µM (inactive) | > 10 µM (inactive) | > 10 µM (inactive) | > 10 µM (inactive) |
| COC(=O)c1csc(-c2nc(CCNC(=O)OC(C)(C)C)sc2Br)n1 | > 100 µM (inactive) | > 100 µM (inactive) | > 100 µM (inactive) | > 100 µM (inactive) | > 100 µM (inactive) |  | > 100 µM (inactive) | > 100 µM (inactive) | > 100 µM (inactive) | > 100 µM (inactive) | > 100 µM (inactive) |  | 81.8 µM (inactive) | > 100 µM (inactive) | > 100 µM (inactive) | > 100 µM (inactive) | > 100 µM (inactive) | > 100 µM (inactive) |  |
| CCN1C(=O)/C(=C\Nc2ccccc2)S/C1=N/Nc1ncc(CC(=O)Nc2ccccc2C)s1 | 33.7 µM (inactive) | 83.8 µM (inactive) | 83.6 µM (inactive) | > 100 µM (inactive) |  | > 100 µM (inactive) | 71.6 µM (inactive) | 43.6 µM (inactive) | > 100 µM (inactive) | > 100 µM (inactive) | 46.5 µM (inactive) | > 100 µM (inactive) | 38.2 µM (inactive) | 64.7 µM (inactive) | 82.6 µM (inactive) | 82.2 µM (inactive) | 28.4 µM (inactive) | > 100 µM (inactive) | 45.3 µM (inactive) |
| COc1ccccc1C#C/C=C\C#Cc1ccccc1C#N | 6.28 µM (inactive) | 13.9 µM (inactive) | 23.7 µM (inactive) | 6.32 µM (inactive) |  | 3.72 µM (inactive) | 5.35 µM (inactive) | 3.68 µM (inactive) | 7.98 µM (inactive) | 39.8 µM (inactive) | 2.09 µM (inactive) |  | 4.08 µM (inactive) | 6.58 µM (inactive) | 5.26 µM (inactive) | 4.61 µM (inactive) | 28.7 µM (inactive) | 10.4 µM (inactive) | 5.86 µM (inactive) |
| COc1ccc(OC)c(/C=C2/C(=O)N/C(=N\C(C)=O)N2C)c1 | > 100 µM (inactive) | > 100 µM (inactive) | > 100 µM (inactive) | > 100 µM (inactive) | > 100 µM (inactive) | > 100 µM (inactive) | > 100 µM (inactive) |  | > 100 µM (inactive) | > 100 µM (inactive) | > 100 µM (inactive) | > 100 µM (inactive) |  | > 100 µM (inactive) | > 100 µM (inactive) | > 100 µM (inactive) | > 100 µM (inactive) | > 100 µM (inactive) |  |
| CCCCN(CCCC)C(=C(C(Cl)=C(Cl)Cl)[N+](=O)[O-])N(CCCC)CCCC |  | > 100 µM (inactive) | 87.3 µM (inactive) |  | > 100 µM (inactive) | > 100 µM (inactive) |  | 0.0119 µM (active) |  | > 100 µM (inactive) | > 100 µM (inactive) |  |  | > 100 µM (inactive) |  |  | > 100 µM (inactive) |  | 73.8 µM (inactive) |
| CCOC(=O)c1c(-c2ccc(OC)c(O)c2)c(C#N)c(=S)n(C2OC(CO)C(O)C(O)C2O)c1-c1ccccc1 (stereo unspecified) | > 100 µM (inactive) | > 100 µM (inactive) | > 100 µM (inactive) | > 100 µM (inactive) |  | > 100 µM (inactive) |  | > 100 µM (inactive) | > 100 µM (inactive) |  | > 100 µM (inactive) | > 100 µM (inactive) | > 100 µM (inactive) | > 100 µM (inactive) | > 100 µM (inactive) |  |  | > 100 µM (inactive) |  |
| Cc1coc2c1[C@@H](O)[C@@]1(C)[C@H](CCC[C@@H]1C)C2 | 42.8 µM (inactive) | 33.8 µM (inactive) | 56.2 µM (inactive) | 37.8 µM (inactive) |  | 72.6 µM (inactive) | 22.4 µM (inactive) | 26.9 µM (inactive) | 18.2 µM (inactive) | 48.4 µM (inactive) | 49.9 µM (inactive) | 43.4 µM (inactive) | 21.6 µM (inactive) | 45 µM (inactive) | 37.6 µM (inactive) | > 100 µM (inactive) |  | 54.6 µM (inactive) | 31.4 µM (inactive) |
| CC1NOC(NS(=O)(=O)c2ccc(/N=N/c3c(O)c(C(=O)O)cc4ccccc34)cc2)C1C (stereo unspecified) | > 100 µM (inactive) | > 100 µM (inactive) | > 100 µM (inactive) | > 100 µM (inactive) | > 100 µM (inactive) | > 100 µM (inactive) | > 100 µM (inactive) | > 100 µM (inactive) | > 100 µM (inactive) | > 100 µM (inactive) | > 100 µM (inactive) |  | > 100 µM (inactive) | > 100 µM (inactive) | > 100 µM (inactive) | > 100 µM (inactive) | > 100 µM (inactive) | > 100 µM (inactive) |  |
